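Dose response: 5 concentrations. Exposure: 48 h. Format: 96-well plates. Endpoint: linear interpolation; highest concentration if not reached. GI50 marks 50% less growth.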 Calls of active or inactive are those of the source. Cut-off read from the data, not from the text of the source: active = GI50 up to about 1.1 µM and inactive = higher.
Key:
Assay in all cases: NCI-60 cell line screen, 48 h
[1] = tested on: OVCAR-4
[2] = tested on: NCI-H226
[3] = tested on: OVCAR-5
[4] = tested on: A498
[5] = tested on: ACHN
[6] = tested on: COLO 205
[7] = tested on: 786-0
[8] = tested on: M14
[9] = tested on: SNB-75
[10] = tested on: IGROV-1
[11] = tested on: SK-MEL-28
[12] = tested on: SN12C
[13] = tested on: SF-539
[14] = tested on: HOP-92
[15] = tested on: UO-31
[16] = tested on: A549
[17] = tested on: RPMI-8226
[18] = tested on: KM12

Measured: GI50

COC(=O)C(=O)Cc1nc2ccccc2s1
inactive: [1] > 100 µM | [2] > 100 µM | [3] > 100 µM | [4] > 100 µM | [5] > 100 µM | [6] > 100 µM | [7] > 100 µM | [8] > 100 µM | [9] > 100 µM | [10] > 100 µM | [11] > 100 µM | [12] > 100 µM | [13] > 100 µM | [14] > 100 µM | [15] > 100 µM | [16] > 100 µM

Cc1c(/C=N/NS(=O)(=O)c2ccccc2)no[n+]1[O-]
inactive: [1] > 100 µM | [3] > 100 µM | [4] > 100 µM | [6] > 100 µM | [7] > 100 µM | [17] > 100 µM | [8] > 100 µM | [10] > 100 µM | [11] > 100 µM | [12] > 100 µM | [13] > 100 µM | [14] > 100 µM | [15] 2.92 µM | [18] > 100 µM | [16] > 100 µM

Cn1c(O)c(C(=O)NC2CCCCC2)c(=O)n(C)c1=S
inactive: [1] 6.75 µM | [2] 8.57 µM | [3] 14.5 µM | [4] 4.44 µM | [5] 3.57 µM | [6] 1.94 µM | [7] 6.15 µM | [17] 4.32 µM | [8] 8.02 µM | [10] 4.89 µM | [11] 4.61 µM | [12] 6.12 µM | [13] 9.16 µM | [14] 3.59 µM | [15] 3.24 µM | [18] 9.66 µM | [16] 3.3 µM

COC(=O)/C=C(\C)CC(O)/C=C(\C)CCC=C(C)C (configuration not stated)
inactive: [1] 44 µM | [2] 45 µM | [3] > 100 µM | [4] 34.7 µM | [5] 64.7 µM | [6] 41.2 µM | [7] 80.5 µM | [8] 38.5 µM | [9] 9.44 µM | [10] > 100 µM | [11] 69 µM | [12] > 100 µM | [13] > 100 µM | [14] 71.6 µM | [15] 33.5 µM | [18] 40.4 µM | [16] 34.3 µM

COC(=O)C(=O)C(C(=O)C=C(C)C)C(=O)C(=O)Nc1cccc(C(C)=O)c1 (configuration not stated)
inactive: [1] > 100 µM | [2] > 100 µM | [3] > 100 µM | [4] > 100 µM | [5] > 100 µM | [6] > 100 µM | [7] > 100 µM | [17] > 100 µM | [8] > 100 µM | [9] > 100 µM | [10] > 100 µM | [11] > 100 µM | [12] > 100 µM | [13] > 100 µM | [15] > 100 µM | [18] > 100 µM | [16] > 100 µM

FC(F)(F)C12C34C=CC5(CCC6(C=CC1(CC3)O6)C52C(F)(F)F)O4 (configuration not stated)
inactive: [1] > 100 µM | [2] > 100 µM | [3] > 100 µM | [4] > 100 µM | [5] > 100 µM | [6] > 100 µM | [7] > 100 µM | [10] > 100 µM | [11] > 100 µM | [12] > 100 µM | [13] > 100 µM | [14] > 100 µM | [18] > 100 µM | [16] > 100 µM

COC(=O)C1CCCN1C(=O)C(Cc1cn(S(=O)(=O)c2ccc(C)cc2)cn1)NC(=O)OC(C)(C)C (configuration not stated)
inactive: [2] > 100 µM | [3] > 100 µM | [4] > 100 µM | [5] > 100 µM | [6] > 10 µM | [7] > 100 µM | [17] > 100 µM | [8] > 100 µM | [9] > 100 µM | [10] > 100 µM | [11] > 100 µM | [12] > 100 µM | [14] > 100 µM | [15] > 100 µM | [18] > 100 µM | [16] > 100 µM

CN1C(=O)N(C)C(N2CCCC2)c2c1nc1ccccn1c2=O (configuration not stated)
inactive: [1] 58.1 µM | [2] > 100 µM | [4] 34.8 µM | [5] > 100 µM | [6] > 100 µM | [7] 97.9 µM | [17] 88.7 µM | [8] 68.9 µM | [9] 45.9 µM | [10] > 100 µM | [11] > 100 µM | [12] 54.3 µM | [13] 33.3 µM | [14] 42.7 µM | [15] > 100 µM | [18] > 100 µM | [16] > 100 µM

CC(=O)OC1C/C(C)=C/[C@H](O)CC(C)/C=C/[C@@]2(C)CCC(C(C)(C)O)C12 (some centres not stated)
inactive: [1] > 100 µM | [2] > 100 µM | [3] > 100 µM | [4] > 100 µM | [5] > 100 µM | [6] > 100 µM | [7] > 100 µM | [17] > 100 µM | [8] > 100 µM | [9] > 100 µM | [10] > 100 µM | [11] > 100 µM | [12] > 100 µM | [13] > 100 µM | [14] > 100 µM | [15] > 100 µM | [18] > 100 µM | [16] > 100 µM

— ChEMBL document CHEMBL1201862, “PubChem BioAssay data set” (2004)
